# From patent US20100292178A1, “Method of treating non-insulin dependent diabetes mellitus and related complications” (priority 2003, published 2010)
# Where two headings read alike, the source gives them in different places.
# How the values were obtained:
# [1] = rabbit, in vivo
# Experimental: Pharmokinetic properties of berberine are performed by conventional method involving radioactive isotope. […] All samples are calibrated by using an internal standard.
# 300 μg quinidine is added to the test tube as an internal standard. One ml chloroform is added into the test tube, which is shaken for ten minutes. Then, the test tube is centrifuged at 400 rev/min for five minutes with a sufficient gravity for separating residues from its liquid. An absolute amount of 0.8 ml of the chloroform is collected by a pipette and is subsequently dried by blowing air. The residue from the dried chloroform is collected and dissolved in a suitable amount of dry ethanol which contains essentially no water. The sample is ready for analysis using thin layer chromatography.
# A silica gel plate is cut into nine strips, each being 1.0 cm wide. Separation is conducted under running buffer of ethyl acetate, ethyl methanoate, methanol and water mixture at a ratio of 5.4:4.6:1.2:1.0. The sample size is 5 μl. When a desirable separation is achieved, the strips are scanned for reflective intensity at wavelength λex, 350 nm and λem 550 nm using Japanese Shimatsu CS-900 double wavelengths thin layer reflective straight line scanner with a Xenon lamp. […] All scans are performed with 0.5 mm×10 mm slit, at scanning speed 20 mm/min, and at recording paper speed 10 mm/min.
# After the blood serum's pH is adjusted to basic, ethyl ether is used to extract berberine. After it is dried, the residues are dissolved in a mobile phase. A fixed amount of sample is introduced into the HPLC system containing a reverse C18 column. The mobile phase is methanol, water and ethylenediamine at a ratio of 75:25:0.5. The pH is adjusted to 6.8 by using acetic acid. Concentration or amount is monitored at wavelength (λ) 345 nm.
# C=Ae^−a+Be^−β−(A−B)e^−kat, where ka is average rate constant weighed by their coefficients: ka=(Aβ+Bα)/(A+B).
# [2] = Excretion of labeled berberine after injection into large mice; type: in vivo; conditions: within six days after injection
# Text: Within the six days after the injection of the labeled berberine into large mice, the amounts of the labeled berberine found in the mice's urine and feces were 73% and 10.9% of the injected concentration respectively. The labeled berberine found in the urine was primarily the original form although some of it became metabolized products.
# (§1) All samples are calibrated by using an internal standard.
# [3] = Pharmacokinetics of a single oral dose of berberine in human patients; type: in vivo; conditions: 300 mg orally
# [4] = design: species or system domestic rabbits; conditions: rabbit, in vivo
# Experimental: The effect of the berberine is the most quickly and distributed extensively, when the berberine is labeled with Hydrogen 3 and is administered to domestic rabbits by direct feeding that berberine is injected through a non-invasive tube directly through the mouth or by injection. […] The total amount in the blood plasma is 38%±3%.
# as §1
# [5] = cited from earlier work
# [6] = test system: patients with diabetic limb-end gangrene; assay: Clinical observation of diabetic limb-end gangrene treated with Glucosynergy
# [7] = 70 cases Observation Group, 50 cases Contrast Group
# [8] = Treatment Group 18 cases, Contrast Group 6 cases
compound,measurement,setting,value
COc1ccc2cc3[n+](cc2c1OC)CCc1cc2c(cc1-3)OCO2 [berberine],time to maximum concentration in the blood,[1],about 50 minutes
same,apparent distribution volume (Vd),[1]; iv,22.1 ± 1.71 L/kg
same,apparent half life for elimination (t½ β),[1]; iv,35.8 ± 2.0 h
same,apparent half life of distribution (t½ α),[1]; iv,1.03 ± 0.11 h
same,apparent drug distribution volume (Vd),[1]; po,20 ± 3 L/kg
same,apparent half life for elimination (t½ β),[1]; po,35.3 ± 1.3 h
same,apparent half life of distribution (t½ α),[1]; po,1.41 ± 0.16 h
same,apparent rate constant ka,[1]; po,2.45±0.22 per hour
same,amount of labeled berberine found in feces,[2],10.9 % of the injected concentration
same,amount of labeled berberine found in urine,[2],73 % of the injected concentration
same,maximum plasma concentration Cmax,[3],395 ng/mL
same,t½ corresponding to elimination rate constant Ke,[3],2.94 h
same,Tmax,"[3]; human, plasma, po, read-out: time to peak plasma concentration, tmax",2.37 h
same,half-life,"[3]; human, plasma, po, read-out: t½ corresponding to apparent absorption rate constant ka (converted)",0.87 h
same,tissue concentration measured by radiation intensity,[4],"the highest in the lung, and then in liver, spleen, kidney and heart"
same,total amount in the blood plasma,[4],38%±3%
OC[C@H]1O[C@@H](O[C@@H]2OC=C[C@H]3[C@H](O)[C@@H]4O[C@]4(CO)[C@@H]23)[C@H](O)[C@@H](O)[C@@H]1O [catalpol],solubility in lipophilic organic solvents,"[5]; chloroform, benzene, petroleum ether",almost insoluble
same,solubility in water and methanol,[5],highly soluble
CN(C)C(=N)N=C(N)N [Glucophage],electrocardiogram hypertrophic cardiomyopathy: effective,[6]; [7],12 cases
same,electrocardiogram hypertrophic cardiomyopathy: not effective,[6]; [7],35 cases
same,electrocardiogram hypertrophic cardiomyopathy: outstandingly effective,[6]; [7],3 cases
same,electrocardiogram hypertrophic cardiomyopathy: total effective rate,[6]; [7],30%
same,Fibrinogen,[6]; After Treatment,3.45 ± 0.44 q/L
same,HDL,[6]; After Treatment,1.12 ± 0.24 mmol/L
same,LDL,[6]; After Treatment,4.51 ± 0.81 mmol/L
same,Red Cells Accumulation,[6]; After Treatment,49.50 ± 4.86%
same,TC,[6]; After Treatment,5.40 ± 0.76 mmol/L
same,TG,[6]; After Treatment,3.39 ± 0.76 mmol/L
same,Total Blood Viscosity High Excise,[6]; After Treatment,6.33 ± 0.34 mpa · s
same,Total Blood Viscosity Low Excise,[6]; After Treatment,15.19 ± 2.10 mpa · s
same,Viscosity Plasma,[6]; After Treatment,2.45 ± 0.37
same,Fibrinogen,[6]; Before Treatment,3.90 ± 0.81 q/L
same,HDL,[6]; Before Treatment,1.07 ± 0.20 mmol/L
same,LDL,[6]; Before Treatment,5.27 ± 1.24 mmol/L
same,Red Cells Accumulation,[6]; Before Treatment,49.58 ± 4.34%
same,TC,[6]; Before Treatment,5.89 ± 1.17 mmol/L
same,TG,[6]; Before Treatment,3.54 ± 0.67 mmol/L
same,Total Blood Viscosity High Excise,[6]; Before Treatment,6.23 ± 0.57 mpa · s
same,Total Blood Viscosity Low Excise,[6]; Before Treatment,15.21 ± 2.17 mpa · s
same,Viscosity Plasma,[6]; Before Treatment,2.72 ± 0.66
same,cases ineffective,[6]; Contrast Group 6 cases,3 cases
same,cases improved,[6]; [8],2 cases
same,cases recovered,[6]; [8],1 cases
same,"24 hours fixed quantity of uric sugar, Before Treatment",[6]; baseline,15.23 ± 3.02 g/24 h
same,"Serum SOD Vitality, Before Treatment",[6]; baseline,89.96 ± 18.21 nu/L
same,"24 hours fixed quantity of uric sugar, After Treatment","[6]; human, in vivo",8.37 ± 1.89 g/24 h
same,"Serum SOD Vitality, After Treatment","[6]; human, in vivo",94.21 ± 17.03 nu/L
same,"Serum SOD Vitality, Value of Difference","[6]; human, in vivo",−4.25 ± 3.33 nu/L
